Tests used:
U87-MG = assay: Cellular proliferation assay (Alamar blue), U87-MG; format: cell-based; conditions: Homo sapiens, U-87 MG; 10% FCS; 72 hours with compound; Alamar blue 6 h; read-out: U87-MG (cellular proliferation assay, Table 4) (converted)
Method in brief: (§1)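 Alamar blue conversion, quantified fluorimetrically (544 nm/590 nm), gave viable cell number relative to untreated controls; dye time 4 h for HCT-116, 6 h for U87-MG, 24 h for A2780 and MDA-MB-231. Compound exposure lasted 72 h, after 24 h pre-seeding, with 10% FCS, 37 °C, 5% CO2.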

AuroraB (h) = AuroraB (h) (Homo sapiens, UniProt Q96GD4); assay: Aurora-B human kinase inhibition, SPA; format: biochemical; conditions: read-out: AuroraB pIC50 (converted)
Method in brief: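 AuroraB (0.5 μg/ml) phosphorylates 3 μM biotin-peptide using 0.5 μM ATP spiked with 33P-ATP in Hepes pH 7.5 with 3 mM MgCl2 and MnCl2, for 60 min at room temperature. EDTA stop solution carries streptavidin scintillant beads, and the captured radiolabel is imaged.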

PLK3 (h) = PLK3 (h) (Homo sapiens, UniProt Q9H4B4); assay: PLK3 human kinase inhibition, SPA; format: biochemical; conditions: read-out: PLK3 pIC50 (converted)
Method in brief: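 Radiometric scintillation proximity format at pH 8.0 (Hepes, MnCl2, DTT). The 2 μM biotin-peptide substrate is phosphorylated by PLK3 (h) (30 μg/ml) using 0.1 μM ATP traced with 33P, for 20 min at room temperature. EDTA stop; phosphopeptide captured on streptavidin beads and imaged.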

CDK4/CyclinD1 (h) = CDK4/CyclinD1 (h) (Homo sapiens, UniProt P11802); assay: CDK4/CyclinD1 human kinase inhibition, SPA with GST-pRb substrate; format: biochemical; conditions: read-out: CDK4 pIC50 (converted)
Procedure: The in vitro inhibition of a panel of kinases was assessed using either the scintillation proximity assay (SPA) as described by Cook, N. D. et al., Advances in Experimental Medicine and Biology (1991), 36; p. 525-528.
In the SPA technology the activity of the kinase of interest is measured using an appropriate biotinylated substrate that is incubated with the aforementioned kinase protein in the presence of (^33P) radiolabeled ATP. (^33P) Phosphorylation of the substrate is subsequently measured through binding of the phosphorylated substrate to streptavidine coated beads that are based on the scintillant poly(vinyl toluene) (PVT-Beads). The scintillation intensity is detected by imaging on Leadseeker.
All kinases are pre-diluted to a 10× working concentration prior to addition into the assay. The composition of the dilution buffer for each kinase is detailed below.
In a final reaction volume of 30 μl, CDK4/CyclinD1 (h) (2.5 μg/ml) is incubated with 50 mM Hepes pH 7.5, 8 mM NaF, 20 mM MgCl2, 1 mM DTT, 40 μg/ml of substrate GST-pRb, 2 nM [γ-^33P-ATP] (6.0 μCi/ml). After incubation of 60 minutes at room temperature, the reaction is stopped by addition of 40 μL of stop solution containing 8.7 mM EDTA, 0.17% Triton X-100, 25 mg/ml Glutathion SPA Beads (GE-healthcare). The plate is centrifuged and read for Scintillation topcount analyzer.

HCT-116 = assay: Cellular proliferation assay (Alamar blue), HCT-116; format: cell-based; conditions: Homo sapiens, 10% FCS, 72 hours with compound, Alamar blue 4 h
Method in brief: as §1

H1299 = assay: Cellular proliferation assay (Alamar blue), H1299; format: cell-based; conditions: Homo sapiens, NCI-H1299; 10% FCS; 72 hours with compound; Alamar blue 4 h
Procedure: (§2) […] functional properties of these compounds were tested in cellular proliferation assays on a panel of different cell lines in the presence of 10% FCS serum (37° C. and 5% (v/v) CO2). In a first step these cells were seeded and incubated for 24 hours in the absence of compound. In the second step the cells were incubated for 72 hours with the compounds to be tested for 72 hours. The viable cell number was finally assessed in a standard Alamar blue cell viability assay.
(§3) The viable cell number was assessed by incubation for either 4 h (HCT-116, H1299) 6 h (U87-MG) or 24 h (A2780, MDA-MB-231) with Alamar blue (Resazurin 9 μg/ml, K-Ferrocyanide 90 μM, K-Ferricyanide 90 μM) and the converted fluorescent product was quantified on a fluorescent plate reader (544 nm/590 nm). Effect of the compounds is calculated as of on control cells.

A2780 = assay: Cellular proliferation assay (Alamar blue), A2780; format: cell-based; conditions: Homo sapiens, 10% FCS, 72 hours with compound, Alamar blue 24 h, read-out: A2780 (cellular proliferation assay, Table 4) (converted)
Method in brief: as §1

PLK1 T210D (h) = PLK1 T210D (h) (Homo sapiens, UniProt P53350, T210D); assay: PLK1 human kinase inhibition, SPA; format: biochemical; conditions: read-out: PLK1 pIC50 (converted)
Method in brief: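 Kinase incubated 40 min at room temperature with 0.1 μM ATP (2 nM [γ-33P]ATP tracer), 2 μM biotinylated peptide, pH 8.0 Hepes buffer with 2 mM MnCl2 and 1 mM DTT; enzyme at 0.125 ng/ml. Stopped with EDTA; 33P-peptide bound to streptavidin scintillant beads and imaged.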

PLK2 (h) = PLK2 (h) (Homo sapiens, UniProt Q9NYY3); assay: PLK2 human kinase inhibition, SPA; format: biochemical; conditions: read-out: PLK2 pIC50 (converted)
Method in brief: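 33P incorporation into a biotinylated peptide (2 μM) was captured on streptavidin PVT beads and imaged on Leadseeker. Enzyme at 30 μg/ml, ATP 0.1 μM with 2 nM [γ-33P]ATP, Hepes pH 8.0 with MnCl2 and DTT. Incubation was 20 min at room temperature.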

MDA-MB-231 = assay: Cellular proliferation assay (Alamar blue), MDA-MB-231; format: cell-based; conditions: Homo sapiens, 10% FCS, 72 hours with compound, Alamar blue 24 h, read-out: MDA/MB231 (cellular proliferation assay, Table 4) (converted)
Procedure: as §2, §3

PLK4 (h) = PLK4 (h) (Homo sapiens, UniProt O00444); assay: PLK-4 human kinase inhibition, scintillation proximity assay (SPA); format: biochemical; conditions: read-out: PLK4 pIC50 (converted)
GSK3β (h) = GSK3β (h) (Homo sapiens, UniProt P49841); assay: GSK-3β human kinase inhibition, SPA; format: biochemical; conditions: read-out: GSK3b pIC50 (converted)
Method in brief: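 Radiometric: 33P-labelled peptide captured on streptavidin SPA beads after EDTA stop and imaged on Leadseeker. Reaction ran 1 h at RT, 1 μM cold ATP with 2 nM [γ-33P]ATP, 1 μM biotin-peptide substrate, human GSK3β 1 μg/ml, pH 7.4 Tris buffer.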

CDK1/CyclinB (h) = CDK1/CyclinB (h) (Homo sapiens, UniProt P06493); assay: CDK1/CyclinB human kinase inhibition, Invitrogen's FRET assay (Z'lyte); format: biochemical; conditions: read-out: CDK1 pIC50 (converted)
Method in brief: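 Read-out is the 460 nm/538 nm emission ratio (390 nm excitation) after a 60 min protease development step. Before that, 10 μM ATP and 2 μM Z'lyte Ser/Thr peptide 12 react 60 min at room temperature with 0.2 μg/ml human CDK1/CyclinB in Hepes pH 7.5 containing MgCl2, EGTA and Brij-35.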

PLK3 (h), sequence (Q9H4B4 whole entry): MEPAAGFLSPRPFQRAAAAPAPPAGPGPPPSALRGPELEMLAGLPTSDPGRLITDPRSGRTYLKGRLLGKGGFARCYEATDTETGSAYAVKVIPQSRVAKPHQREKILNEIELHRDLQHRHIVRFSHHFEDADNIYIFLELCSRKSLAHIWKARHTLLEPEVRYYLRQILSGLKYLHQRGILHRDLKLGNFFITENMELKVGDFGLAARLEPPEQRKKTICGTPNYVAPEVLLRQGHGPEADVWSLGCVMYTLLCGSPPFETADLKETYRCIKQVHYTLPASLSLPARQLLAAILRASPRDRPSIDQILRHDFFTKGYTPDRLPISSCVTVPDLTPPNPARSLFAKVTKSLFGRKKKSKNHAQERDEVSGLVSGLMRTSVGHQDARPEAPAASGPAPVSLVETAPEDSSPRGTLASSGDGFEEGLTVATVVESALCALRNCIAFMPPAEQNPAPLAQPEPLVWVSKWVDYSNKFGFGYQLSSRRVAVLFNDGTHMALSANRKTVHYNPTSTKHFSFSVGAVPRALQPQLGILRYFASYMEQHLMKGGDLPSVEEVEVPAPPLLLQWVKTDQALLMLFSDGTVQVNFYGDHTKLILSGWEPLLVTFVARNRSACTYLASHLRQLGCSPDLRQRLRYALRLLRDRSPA
AuroraB (h), sequence (Q96GD4 whole entry): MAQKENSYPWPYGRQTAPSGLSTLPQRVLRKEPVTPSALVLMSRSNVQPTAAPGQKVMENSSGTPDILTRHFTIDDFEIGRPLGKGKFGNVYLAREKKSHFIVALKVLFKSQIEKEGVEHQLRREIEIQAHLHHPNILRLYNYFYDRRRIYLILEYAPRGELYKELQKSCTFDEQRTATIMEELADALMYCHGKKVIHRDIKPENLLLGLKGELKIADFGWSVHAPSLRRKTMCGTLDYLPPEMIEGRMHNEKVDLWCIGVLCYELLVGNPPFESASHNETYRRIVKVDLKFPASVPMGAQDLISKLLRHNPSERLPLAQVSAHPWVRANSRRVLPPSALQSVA
PLK4 (h), sequence (O00444 whole entry): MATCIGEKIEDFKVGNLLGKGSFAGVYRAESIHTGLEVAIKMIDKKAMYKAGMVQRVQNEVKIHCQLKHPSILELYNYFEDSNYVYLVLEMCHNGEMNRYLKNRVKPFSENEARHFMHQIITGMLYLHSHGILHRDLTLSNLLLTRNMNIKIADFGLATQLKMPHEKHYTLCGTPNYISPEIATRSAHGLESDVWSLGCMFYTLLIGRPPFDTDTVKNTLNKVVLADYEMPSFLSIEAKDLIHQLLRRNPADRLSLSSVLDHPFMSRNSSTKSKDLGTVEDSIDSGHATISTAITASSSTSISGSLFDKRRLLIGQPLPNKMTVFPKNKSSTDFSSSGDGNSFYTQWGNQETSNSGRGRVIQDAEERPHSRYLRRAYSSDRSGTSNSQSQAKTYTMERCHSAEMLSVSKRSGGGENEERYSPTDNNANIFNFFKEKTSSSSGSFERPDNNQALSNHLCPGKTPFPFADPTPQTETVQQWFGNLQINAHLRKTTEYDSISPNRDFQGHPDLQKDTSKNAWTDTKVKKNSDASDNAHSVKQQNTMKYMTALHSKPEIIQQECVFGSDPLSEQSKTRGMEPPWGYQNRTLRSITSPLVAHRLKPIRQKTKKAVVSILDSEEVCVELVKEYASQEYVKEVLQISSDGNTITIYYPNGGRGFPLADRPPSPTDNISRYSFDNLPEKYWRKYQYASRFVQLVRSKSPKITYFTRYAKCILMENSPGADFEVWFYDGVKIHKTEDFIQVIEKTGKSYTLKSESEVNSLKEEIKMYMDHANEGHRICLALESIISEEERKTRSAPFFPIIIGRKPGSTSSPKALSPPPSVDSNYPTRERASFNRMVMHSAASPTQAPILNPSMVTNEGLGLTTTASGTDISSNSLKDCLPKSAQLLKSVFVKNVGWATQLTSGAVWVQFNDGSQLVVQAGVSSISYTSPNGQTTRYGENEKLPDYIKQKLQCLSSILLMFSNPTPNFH
PLK2 (h), sequence (Q9NYY3 whole entry): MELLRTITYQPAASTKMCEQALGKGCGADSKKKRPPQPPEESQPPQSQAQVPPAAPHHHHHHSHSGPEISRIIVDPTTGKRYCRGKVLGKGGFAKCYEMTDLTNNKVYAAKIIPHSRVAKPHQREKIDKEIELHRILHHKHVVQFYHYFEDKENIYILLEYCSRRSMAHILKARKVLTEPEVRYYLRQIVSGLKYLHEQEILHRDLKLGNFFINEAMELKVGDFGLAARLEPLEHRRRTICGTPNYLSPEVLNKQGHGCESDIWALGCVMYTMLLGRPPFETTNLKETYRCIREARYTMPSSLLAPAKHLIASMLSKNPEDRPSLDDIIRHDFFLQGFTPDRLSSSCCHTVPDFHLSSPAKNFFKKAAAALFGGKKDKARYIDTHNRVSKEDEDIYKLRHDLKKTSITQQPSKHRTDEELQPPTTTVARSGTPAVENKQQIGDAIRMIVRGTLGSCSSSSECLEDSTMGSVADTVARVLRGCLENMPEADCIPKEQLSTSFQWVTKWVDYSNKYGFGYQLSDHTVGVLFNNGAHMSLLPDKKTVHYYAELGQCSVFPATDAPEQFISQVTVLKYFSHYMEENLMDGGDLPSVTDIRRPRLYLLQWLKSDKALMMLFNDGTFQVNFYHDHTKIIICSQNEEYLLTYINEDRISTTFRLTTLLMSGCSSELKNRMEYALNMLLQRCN
GSK3β (h), sequence (P49841 whole entry): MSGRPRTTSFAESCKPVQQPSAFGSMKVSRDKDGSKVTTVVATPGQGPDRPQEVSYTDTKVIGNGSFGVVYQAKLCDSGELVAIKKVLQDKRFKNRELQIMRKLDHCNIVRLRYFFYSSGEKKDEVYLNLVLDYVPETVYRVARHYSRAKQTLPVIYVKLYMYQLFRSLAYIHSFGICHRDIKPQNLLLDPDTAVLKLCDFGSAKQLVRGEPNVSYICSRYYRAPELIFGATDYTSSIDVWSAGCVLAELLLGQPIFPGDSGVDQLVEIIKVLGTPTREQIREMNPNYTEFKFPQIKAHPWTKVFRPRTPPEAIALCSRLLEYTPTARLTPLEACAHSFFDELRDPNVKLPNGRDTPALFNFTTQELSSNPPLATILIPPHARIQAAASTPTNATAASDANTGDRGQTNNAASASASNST
CDK4/CyclinD1 (h), sequence (P11802 whole entry): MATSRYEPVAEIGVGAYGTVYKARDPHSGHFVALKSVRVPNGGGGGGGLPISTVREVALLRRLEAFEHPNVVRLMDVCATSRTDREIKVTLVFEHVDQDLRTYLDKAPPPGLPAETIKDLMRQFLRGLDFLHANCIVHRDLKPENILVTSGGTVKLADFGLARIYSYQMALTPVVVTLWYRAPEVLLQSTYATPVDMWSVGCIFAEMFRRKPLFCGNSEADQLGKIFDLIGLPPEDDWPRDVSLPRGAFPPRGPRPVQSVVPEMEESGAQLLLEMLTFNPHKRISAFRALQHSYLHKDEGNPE
CDK4/CyclinD1 (h), sequence (P24385 whole entry partner): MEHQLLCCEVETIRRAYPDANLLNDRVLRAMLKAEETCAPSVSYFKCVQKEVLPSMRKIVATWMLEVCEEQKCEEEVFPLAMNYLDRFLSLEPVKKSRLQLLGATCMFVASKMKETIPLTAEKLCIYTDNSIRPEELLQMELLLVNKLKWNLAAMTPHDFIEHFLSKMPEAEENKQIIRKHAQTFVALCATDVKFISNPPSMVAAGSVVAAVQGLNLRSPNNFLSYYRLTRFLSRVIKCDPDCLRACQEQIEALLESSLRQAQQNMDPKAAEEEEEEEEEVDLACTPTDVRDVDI
PLK1 T210D (h), sequence (P53350 whole entry T210D): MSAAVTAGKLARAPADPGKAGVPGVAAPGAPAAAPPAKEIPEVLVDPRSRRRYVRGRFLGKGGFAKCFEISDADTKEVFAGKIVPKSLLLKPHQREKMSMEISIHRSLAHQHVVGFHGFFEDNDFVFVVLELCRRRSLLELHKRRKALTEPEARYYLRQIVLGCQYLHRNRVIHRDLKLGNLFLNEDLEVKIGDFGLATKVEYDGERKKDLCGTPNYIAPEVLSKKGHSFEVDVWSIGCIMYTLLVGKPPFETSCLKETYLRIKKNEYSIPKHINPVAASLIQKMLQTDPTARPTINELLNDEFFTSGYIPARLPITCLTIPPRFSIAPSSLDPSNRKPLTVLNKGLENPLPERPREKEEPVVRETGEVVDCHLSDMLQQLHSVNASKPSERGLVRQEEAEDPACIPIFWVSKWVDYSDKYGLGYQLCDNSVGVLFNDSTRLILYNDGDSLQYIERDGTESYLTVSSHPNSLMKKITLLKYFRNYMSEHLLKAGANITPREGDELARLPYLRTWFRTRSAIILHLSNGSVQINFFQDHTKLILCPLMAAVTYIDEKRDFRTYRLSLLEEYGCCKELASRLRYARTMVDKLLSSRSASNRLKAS
CDK1/CyclinB (h), sequence (P06493 whole entry): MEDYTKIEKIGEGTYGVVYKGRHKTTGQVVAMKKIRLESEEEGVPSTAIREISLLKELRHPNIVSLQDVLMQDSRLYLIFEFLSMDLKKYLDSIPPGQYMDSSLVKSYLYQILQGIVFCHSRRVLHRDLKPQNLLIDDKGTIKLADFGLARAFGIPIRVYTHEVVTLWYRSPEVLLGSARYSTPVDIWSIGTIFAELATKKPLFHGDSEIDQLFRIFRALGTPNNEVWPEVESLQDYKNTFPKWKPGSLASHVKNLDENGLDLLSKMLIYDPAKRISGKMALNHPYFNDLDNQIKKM
CDK1/CyclinB (h), sequence (P14635 whole entry partner): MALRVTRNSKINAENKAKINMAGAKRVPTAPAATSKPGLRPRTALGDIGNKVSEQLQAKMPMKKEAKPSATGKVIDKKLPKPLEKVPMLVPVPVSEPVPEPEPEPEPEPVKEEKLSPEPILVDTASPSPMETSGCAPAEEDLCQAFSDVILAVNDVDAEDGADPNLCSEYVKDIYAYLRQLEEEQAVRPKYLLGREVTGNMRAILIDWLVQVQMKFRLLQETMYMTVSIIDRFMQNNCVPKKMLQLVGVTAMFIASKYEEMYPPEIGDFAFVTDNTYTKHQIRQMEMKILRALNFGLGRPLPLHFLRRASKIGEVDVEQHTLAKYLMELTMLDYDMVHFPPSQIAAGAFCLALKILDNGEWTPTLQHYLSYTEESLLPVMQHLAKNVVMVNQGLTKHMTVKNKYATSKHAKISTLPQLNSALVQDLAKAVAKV

SMILES	IC50 (U87-MG) [µM]	IC50 (AuroraB (h)) [µM]	IC50 (PLK3 (h)) [µM]	IC50 (CDK4/CyclinD1 (h)) [µM]	IC50 (HCT-116) [µM]	IC50 (H1299) [µM]	IC50 (A2780) [µM]	IC50 (PLK1 T210D (h)) [µM]	IC50 (PLK2 (h)) [µM]	IC50 (MDA-MB-231) [µM]	IC50 (PLK4 (h)) [µM]	IC50 (GSK3β (h)) [µM]	IC50 (CDK1/CyclinB (h)) [µM]
O=C1NCc2cccc(c2)-c2ccnc(n2)Nc2cccc(c2)CN2CCC[C@@H]12 [Compound 53]	6.61	> 10	> 10	> 10	8.71	> 10	> 10	> 10	> 10	> 10	> 10	0.126	–
O=C1NCCNCc2ccc(cc2)-c2ccnc(n2)Nc2ccc(N3CCOCC3)c(c2)CN2CCC1CC2 [Compound 71]	–	> 10	> 10	> 10	5.13	> 10	–	> 10	> 10	6.76	1.7	> 10	9.77
COc1cc2cc(c1)Nc1nccc(n1)-c1ccc(cc1)CN(C)CCCNC(=O)CN1CCN(CC1)C2 [Compound 133]	8.91	> 10	> 10	> 10	1.95	> 10	> 10	> 10	> 3.02	> 10	1.51	–	> 10
COc1ccc2cc1CNCCCNC(=O)C1CCN(CC1)Cc1cc(ccc1N1CCOCC1)Nc1nccc-2n1 [Compound 3]	–	1.55	> 10	> 10	> 10	> 10	–	> 10	> 10	> 10	0.0871	> 10	> 10
O=C1CN2CCN(CC2)Cc2cc(ccc2N2CCOCC2)Nc2nccc(n2)-c2ccc(cc2)CNCCN1 [Compound 125]	–	> 10	> 10	> 10	> 10	> 10	–	> 10	> 10	> 10	0.692	> 10	> 10
COc1ccc2cc1CNCCCNC(=O)CN1CCN(CC1)Cc1cc(ccc1N1CCOCC1)Nc1nccc-2n1 [Compound 13]	–	4.17	> 10	> 10	> 10	> 10	–	> 10	> 10	> 10	0.49	> 10	> 10
CN1CCN(Cc2cc3cc(c2)Nc2nccc(n2)-c2cccc(c2)CNC(=O)[C@@H]2CCCN2C3)CC1 [Compound 28]	0.158	> 10	> 10	1.66	0.363	2.24	0.55	> 10	> 10	1.62	–	0.112	0.603
